Results published in patent US20210292306A1, “NOVEL INDOLE DERIVATIVE AND ANTI-CANCER CONPOSITION CONTAINING SAME” (KOREA RESEARCH INSTITUTE OF BIOSCIENCE AND BIOTECHNOLOGY, priority 2016, published 2021).
≈ marks a conversion by molar mass, not a printed value.

What was measured:
[1] = Solubility in phosphate buffer; type: physicochemical; details: aqueous buffer, thermodynamic from solid
Experimental: In order to examine the solubility of the indole derivative of the present invention, the solubility of the compound of Example 1 (WCI-1031) was examined at pH 6.5 or pH 7.4.
Specifically, a solid sample (˜1 mg) of the test substance was placed on Whatman Syringeless filter (PVDF membrane, 0.45 μm pore size) and mixed with 0.5 ml of a phosphate buffer (pH 6.5 or 7.4). The mixture was sonicated for 15 minutes and vortexed for 1 hour at room temperature. The equilibrated mixture was filtered and the filtrate was analyzed with a multi-wavelength UV plate reader (FIGS. 8 and 9).

[2] = system: K562/ADR; assay: Anti-proliferative activity in cancer cells showing multiple drug resistance (MTT assay); type: cell-based
Experimental: (§1) HeLa cells (ATCC, USA), which are a human cervical cancer cell line, were dispensed into a 96-well plate at 2×10^3 cells/well, and the cells were treated with DMSO or the indole derivatives of the present invention, and then allowed to grow for 4 days. And then, MTT (3-(4,5-Dimethylthiazol-2-yl)-2,5-diphenyltetrazolium bromide) reagent was added to the wells at 10 μl/well. After 2 hours, the absorbance was measured at “OD 450” and statistical values were obtained using the plizm6 program. The data represent mean values of the results of two repeated assays (Table 1). Specifically, K562 and MCF7 (Bio Evaluation Center, Korea Research Institute of Bioscience and Biotechnology, Korea), and K562/ADR and MCF7/ADR (Bio Evaluation Center, Korea Research Institute of Bioscience and Biotechnology, Korea), which are multiple drug-resistant cell lines of the above mentioned cell lines, respectively, were cultured on a microtiter plate at 1-3×10^3 cells/well.

[3] = system: MCF7/ADR; assay: as above; type: cell-based
Experimental: as §1

[4] = system: HeLa cells; assay: Anti-proliferative activity in HeLa cell line (MTT assay); type: cell-based; details: Homo sapiens, 96 h, 4 days, mean of two repeated assays
Experimental: HeLa cells (ATCC, USA), which are a human cervical cancer cell line, were dispensed into a 96-well plate at 2×10^3 cells/well, and the cells were treated with DMSO or the indole derivatives of the present invention, and then allowed to grow for 4 days. And then, MTT (3-(4,5-Dimethylthiazol-2-yl)-2,5-diphenyltetrazolium bromide) reagent was added to the wells at 10 μl/well. After 2 hours, the absorbance was measured at “OD 450” and statistical values were obtained using the plizm6 program. The data represent mean values of the results of two repeated assays (Table 1).

[5] = system: MCF7; assay: Anti-proliferative activity, multiple drug resistance study (MTT assay), parent line; type: cell-based; details: Homo sapiens, 96 h, 4 days, mean of three assays
Experimental: as §1

[6] = system: K562; assay: as above; type: cell-based; details: Homo sapiens, 96 h, 4 days, mean of three assays
Experimental: as §1

[7] = system: human-derived skin cancer cell line (A431); assay: Anti-cancer effect in human-derived skin cancer cell (A431) implantation nude mouse model; type: in vivo, BALB/C female nude mouse; details: for tumor growth inhibition: days 0-23, last day (day 23), vs solvent control; for tumor weight reduction: excised A431 tumors weighed
Experimental: The human cancer cell line A431 which was kept frozen in liquid nitrogen was thawed and cell culture was conducted. Cells were cultured in a CO2 incubator (Forma, USA) at 37° C. and 5% CO2 for an appropriate period of time. On the last day of culture, all cancer cells were collected and counted and the cell concentration was adjusted to 1×10^7 cells/ml using serum free media. The culture solution thus prepared was injected subcutaneously in the axillary region between the scapula and chest wall in an amount of 0.3 ml per BALB/C female nude mouse (5 weeks old, Nara Biotech) (3×10^6 cells/mouse). […] To examine the toxicity levels of the repeated intraperitoneal administration of WCI-1031 to A431 cancer cell implantation nude mice, general symptoms and weight changes of the animals were observed during the administration period. […] On day 23 after the start of the drug administration, blood was taken from the mice through ophthalmic veins 2 hours after the last administration, and the mice were sacrificed using CO2 gas. Then the mice were photographed and the tumors was isolated and weighed in a chemical balance. After taking photographs, each tumor was divided in half, and the resultant tumors were fixed to liquid nitrogen and formalin, respectively.

solubility at 1 h ([1]; phosphate buffer pH 6.5, room temperature): 0.9 µg/mL (≈ 2.05 µM)
solubility at 1 h ([1]; phosphate buffer pH 7.4, room temperature): 0.4 µg/mL (≈ 0.91 µM)
IC50 ([2]; Homo sapiens, 96 h, K562/ADR multiple drug-resistant line, 4 days, MTT, mean of three assays): 0.318 µM
IC50 ([3]; Homo sapiens, NCI/ADR-RES, 96 h, MCF7/ADR multiple drug-resistant line, 4 days, MTT, mean of three assays): 0.481 µM
IC50 [4]: 0.653 µM
IC50 [5]: 1.32 µM
IC50 [6]: 0.532 µM
Structure (SMILES): COC(=O)Cn1c(C)c(/C=N/NC(=O)c2cc3c(ccc4ccccc43)o2)c2ccccc21 [WCI-1031, methyl (E)-2-(2-methyl-3-((2-(naphtho[2,1-b]furan-2-carbonyl) hydrazono)methyl)-1H-indole-1-yl)acetate]
Resistance factor ([2]; ratio of IC50 K562/ADR to IC50 K562): 0.60
Resistance factor ([3]; ratio of IC50 MCF7/ADR to IC50 MCF7): 0.36
tumor growth inhibition ([7]; 10 mg/kg): 9.3%
tumor weight reduction ([7]; 10 mg/kg): 10.7%
tumor growth inhibition ([7]; 20 mg/kg, p<0.001): 37.2%
tumor weight reduction ([7]; 20 mg/kg, p<0.001): 38.0%
